Results: patent US20230165251A1, “SUBSTITUTED TOLYL FUNGICIDES AND THEIR MIXTURES” (FMC Corporation, priority 2020, published 2023)

Legend:
[1] = tested on: Phakopsora pachyrhizi; experiment: Test D: preventive spray on soybean seedlings, Asian soybean rust; assay type: in vivo; conditions: Rate 10 ppm; for pest or weed control at 10 ppm: Phakopsora pachyrhizi, 216 h, read-out: Test D disease control rating
Text: (§1) General protocol for preparing test suspensions for Tests A-F: the test compounds were first dissolved in acetone in an amount equal to 3% of the final volume and then suspended at the desired concentration (in ppm) in acetone and purified water (50/50 mix by volume) containing 250 ppm of the surfactant PEG400 (polyhydric alcohol esters). The resulting test suspensions were then used in Tests A-F.
The test solution was sprayed to the point of run-off on soybean seedlings. The following day the seedlings were inoculated with a spore suspension of Phakopsora pachyrhizi (the causal agent of Asian soybean rust) and incubated in a saturated atmosphere at 22° C. for 24 h and then moved to a growth chamber at 22° C. for 8 days, after which time visual disease ratings were made.
(§2) A rating of 100 indicates 100% disease control and a rating of 0 indicates no disease control (relative to the controls). A dash (-) indicates the compound was not tested.

[2] = tested on: Puccinia recondita f. sp. tritici; experiment: Test B: preventive spray on wheat seedlings, wheat leaf rust; assay type: in vivo; conditions: for pest or weed control at 10 ppm: Puccinia recondita, 192 h, read-out: Test B disease control rating
Text: as §1
The test solution was sprayed to the point of run-off on wheat seedlings. The following day the seedlings were inoculated with a spore suspension of Puccinia recondita f. sp. tritici (the causal agent of wheat leaf rust) and incubated in a saturated atmosphere at 20° C. for 24 h, and then moved to a growth chamber at 20° C. for 7 days, after which time disease ratings were made.
as §2

Row | Compound | pest or weed control at 10 ppm [1] [%] | pest or weed control at 10 ppm ([2]; Rate 10 ppm) [%] | Test D disease control rating [1] [%] | Test B disease control rating ([2]; Rate 10 ppm) [%] | Test B disease control rating ([2]; Rate 2 ppm) [%]
1 | CO/N=C(\C)c1cc(F)c(-n2ccc(-c3ccc(C)c(CNC(=O)OC)c3)n2)c(F)c1 [Compound 83, methyl (E)-N-[[5-[1-[2,6-difluoro-4-[1-(methoxyimino)ethyl]phenyl]-1H-pyrazol-3-yl]-2-methylphenyl]methyl]carbamate] | 100 | 100 | – | – | –
2 | COC(=O)NCc1cc(-c2ccn(-c3c(F)cc(C4CC4(F)F)cc3F)n2)ccc1C (stereo not drawn) [Compound 89, methyl N-[[5-[1-[4-(2,2-difluorocyclopropyl)-2,6-difluorophenyl]-1H-pyrazol-3-yl]-2-methylphenyl]methyl]carbamate] | 100 | 100 | – | – | –
3 | CO/N=C(/C)c1cc(F)c(-n2ccc(-c3ccc(C)c(CNC(=O)OC)c3)n2)c(F)c1 [Compound 99, methyl (Z)-N-[[5-[1-[2,6-difluoro-4-[1-(methoxyimino)ethyl]phenyl]-1H-pyrazol-3-yl]-2-methylphenyl]methyl]carbamate] | 100 | 100 | – | – | –
4 | COC(=O)NCc1cc(-c2ccn(-c3c(F)cc(C4OCCCO4)cc3F)n2)ccc1C [Compound 134] | – | – | 100 | 89 | –
5 | CCC(C)c1cc(F)c(-n2ncc(-c3ccc(C)c(CNC(=O)OC)c3)n2)c(F)c1 (stereo not drawn) [Compound 139, methyl N-[[5-[2-[2,6-difluoro-4-(1-methylpropyl)phenyl]-2H-1,2,3-triazol-4-yl]-2-methylphenyl]methyl]carbamate] | 100 | 99 | – | – | –
6 | COC(=O)NNc1cc(-c2ccn(-c3c(F)cccc3F)n2)ccc1C [Compound 154] | 25 | 0 | – | – | –
7 | COC(=O)NNc1cc(-c2ccn(-c3c(F)cc(C(C)C)cc3F)n2)ccc1C [Compound 155] | 100 | 91 | – | – | –
8 | COC(=O)NNc1cc(-c2ccn(-c3c(F)cc(C(F)(F)F)cc3F)n2)ccc1C [Compound 156] | 54 | 85 | – | – | –
9 | COC(=O)NCc1cc(-c2ccn(-c3c(F)cc(OCC(F)(F)F)cc3F)n2)ccc1C [compound 22] | – | – | 100 | 99 | –
10 | COC(=O)NCc1cc(-c2ccn(-c3c(F)cc(I)cc3SC)n2)ccc1C [compound 26] | – | – | 87 | 73 | –
11 | COC(=O)NCc1cc(-c2ccn(-c3c(F)cc(SC)cc3F)n2)ccc1C [compound 27] | – | – | 100 | 99 | –
12 | COC(=O)NCc1cc(-c2ccn(-c3c(F)cc(SC)cc3SC)n2)ccc1C [compound 28] | – | – | 100 | 0 | –
13 | COC(=O)NCc1cc(-c2ccn(-c3c(F)cc(OC)cc3OC)n2)ccc1C [compound 34] | – | – | 96 | 28 | –
14 | COC(=O)NCc1cc(-c2ccn(-c3c(C)cc([N+](=O)[O-])cc3C)n2)ccc1C [compound 35] | – | – | 0 | 0 | –
15 | CNc1cc(F)c(-n2ccc(-c3ccc(C)c(CNC(=O)OC)c3)n2)c(F)c1 [compound 36] | – | – | 100 | 68 | –
16 | methyl N-[[5-[1-[2,6-dichloro-4-(1,1-dimethylethyl)phenyl]-1H-pyrazol-3-yl]-2-methylphenyl]methyl]carbamate [Compound 135] | – | – | – | 86 | –
17 | methyl N-[[5-[1-[2,6-difluoro-4-(2-propyn-1-yloxy)phenyl]-1H-pyrazol-3-yl]-2-methylphenyl]methyl]carbamate [Compound 30] | – | – | – | 98 | –
18 | methyl N-[[5-[2-[2,6-difluoro-4-(1-methylethyl)phenyl]-2H-1,2,3-triazol-4-yl]-2-methylphenyl]methyl]carbamate [Compound 108] | – | – | – | – | 100
